Measurements: paper PMC7251123, “CX-5461 activates the DNA damage response and demonstrates therapeutic efficacy in high-grade serous ovarian cancer” (Nature Communications, 2020)

Columns and labels:
[1] = design: method as in PMID 31092402; details: Phase I CX-5461 dose escalation study ref 16; cited from earlier work
[2] = tested on: panel of 32 established human OVCA cell lines; assay: Cell proliferation dose response (IncuCyte ZOOM), 48 h, whole panel; assay type: cell-based; details: 32 OVCA cell lines, threshold for sensitive, read-out: geometric median of GI50
Procedure: (§1) The in vitro effects of CX-5461 on human OVCA cells were evaluated using a panel of 32 established human OVCA cell lines. These cell lines were selected to be representative of a range of histologic OVCA subtypes (Supplementary Table 1). Increasing concentrations (1 nM–10 μM) of CX-5461 were used to assess the concentration of drug that induced a 50% reduction in cell proliferation (GI50) at 48 hours (h). […] There was no statistically significant correlation between TP53 mutation status and sensitivity to CX-5461 (Supplementary Table 1, Fig. 1b). The efficacy of growth inhibition by CX-5461 correlated with a higher rate of basal rDNA transcription in the sensitive compared with the resistant OVCA cell lines (Fig. 1c).
(§2) Fig. 1 Sensitivity of ovarian cancer (OVCA) cell lines to CX-5461. a CX-5461 doses that induce 50% growth inhibition (GI50) at 48 hours. Error bars represent mean ± standard deviation (SD). […]
(§3) For assessing OVCA cells’ sensitivity to CX-5461, dose response curves were generated for each cell line by plating cells in 96-well plates, culturing them for 24 hours and then treating them with either vehicle or increasing concentrations of drug (0, 0.001, 0.003, 0.01, 0.03, 0.1, 0.3, 1, 3, 10 and 30 μM CX-5461) for 48 h. Cell number was assessed using the IncuCyte ZOOM imaging system (Essen BioScience). […] During this time the degree of confluency was measured every 24 h. […]

OVCAR3 = assay: Cell proliferation dose response (IncuCyte ZOOM), 48 h; assay type: cell-based; details: Homo sapiens, OVCAR-3; OVCAR3, 48 h; read-out: GI50 (concentration inducing 50% reduction in cell proliferation)
Procedure: as §1, §2, §3

OV90 = assay: as above; assay type: cell-based; details: Homo sapiens, OV-90; OV90, 48 h; read-out: GI50 (concentration inducing 50% reduction in cell proliferation)
Procedure: as §1, §2, §3

GI50 (OVCAR3): 12 nM
SMILES: Cc1cnc(CNC(=O)c2c(=O)c3ccc(N4CCCN(C)CC4)nc3n3c2sc2ccccc23)cn1 [CX-5461]
plasma concentrations range, lower end [1]: 584.1 nM
GI50 [2]: 363 nM
GI50 (OV90): 5170 nM
